Key:
Hsp90 (SKBr3 lysate) = experiment: Hsp90 binding assay (fluorescence polarization, cy3B-GM displacement), human cancer cell lysate; conditions: lysate not given
Description: (§1) For the binding studies, fluorescence polarization (FP) assays w-re performed similarly as was previously reported [Du et al. (2007) “High-throughput screening fluorescence polarization assay for tumor-specific Hsp90” J. Biomol. Screen 12:915-924]. Briefly, FP measurements were performed on an Analyst GT instrument (Molecular Devices, Sunnyvale, Calif.). Measurements were taken in black 96-well microtiter plates (Corning #3650) where both the excitation and the emission occurred from the top of the well. A stock of 10 μM cy3B-GM was prepared in DMSO and diluted with HFB buffer (20 mM Hepes (K), pH 7.3, 50 mM KCl, 2 mM DTT, 5 mM MgCl2, 20 mM Na2MoO4, and 0.01% NP40 with 0.1 mg/mL BGG). The test compounds were dissolved in DMSO and added at several concentrations to the HFB assay buffer containing both 6 nM cy3B-GM and transgenic mouse brain lysate (6 μg JNPL3 lysate) or human cancer cell lysate (3 μg SKBr3 lysate) in a final volume of 100 μL. Drugs were added to triplicate wells. Free cy3B-GM (6 nM cy3B-GM), bound cy3B-GM (6 nM cy3B-GM+lysate, as indicated above) and buffer only containing wells (background) were included as controls in each plate. Plates were incubated on a shake at 4° C., and polarization values measured at 24 h. Percentage inhibition was calculated as follows: (% Control)=100−((mPc−mPf)/(mPb−mPf))×100, where mPc is the recorded mP from compound wells, mPf is the average recorded mP from cy3B-GM-only wells, and mPb is the average recorded mP from wells containing both cy3B-GM and lysate, and plotted against values of competitor concentrations. The inhibitor concentration at which 50% of bound cy3B-GM was displaced was obtained by fitting the data using a nonlinear regression analysis as implemented in Prism 4.0 (GraphPad Software).

Hsp90 = experiment: as above; conditions: fluorescence polarization, cy3B-GM displacement; the table does not say which lysate (SKBr3 or JNPL3)
Description: as §1

hERG = target: T1, hERG (Homo sapiens, UniProt Q12809); experiment: hERG fluorescence polarization assay (Predictor hERG kit); format: binding; conditions: concentration displacing 50% of Predictor hERG tracer red; read-out: hERG assay result
T1 construct: purchased Invitrogen PV5365
Description: hERG Fluorescence Polarization Assay:
Following the manufacturer's protocol, the hERG assay was performed using Predictor hERG Fluorescence Polarization Assay kit (catalog no. PV5365) from Invitrogen. Briefly, FP measurements were performed on an Analyst GT instrument (Molecular Devices, Sunnyvale, Calif.). Measurements were taken in black 384-well plates (Corning #3677), where both the excitation and the emission occurred from the top of the well. The test compounds were dissolved in DMSO and added at several concentrations to the Predictor hERG FP assay buffer containing 4 nM Predictor hERG tracer red and 10 μL of Predictor hERG membrane in a final volume of 20 μL. Drugs were added to triplicate wells. E-4031 as positive control was included in each plate. Plates were then kept on a shaker at room temperature and polarization values were measured after 4 hrs. The inhibition concentration at which 50% of tracer red gets displaced was obtained by fitting the data using a nonlinear regression analysis as implemented in Prism 5.0 (GraphPad Software).

T1 sequence (Q12809 whole entry): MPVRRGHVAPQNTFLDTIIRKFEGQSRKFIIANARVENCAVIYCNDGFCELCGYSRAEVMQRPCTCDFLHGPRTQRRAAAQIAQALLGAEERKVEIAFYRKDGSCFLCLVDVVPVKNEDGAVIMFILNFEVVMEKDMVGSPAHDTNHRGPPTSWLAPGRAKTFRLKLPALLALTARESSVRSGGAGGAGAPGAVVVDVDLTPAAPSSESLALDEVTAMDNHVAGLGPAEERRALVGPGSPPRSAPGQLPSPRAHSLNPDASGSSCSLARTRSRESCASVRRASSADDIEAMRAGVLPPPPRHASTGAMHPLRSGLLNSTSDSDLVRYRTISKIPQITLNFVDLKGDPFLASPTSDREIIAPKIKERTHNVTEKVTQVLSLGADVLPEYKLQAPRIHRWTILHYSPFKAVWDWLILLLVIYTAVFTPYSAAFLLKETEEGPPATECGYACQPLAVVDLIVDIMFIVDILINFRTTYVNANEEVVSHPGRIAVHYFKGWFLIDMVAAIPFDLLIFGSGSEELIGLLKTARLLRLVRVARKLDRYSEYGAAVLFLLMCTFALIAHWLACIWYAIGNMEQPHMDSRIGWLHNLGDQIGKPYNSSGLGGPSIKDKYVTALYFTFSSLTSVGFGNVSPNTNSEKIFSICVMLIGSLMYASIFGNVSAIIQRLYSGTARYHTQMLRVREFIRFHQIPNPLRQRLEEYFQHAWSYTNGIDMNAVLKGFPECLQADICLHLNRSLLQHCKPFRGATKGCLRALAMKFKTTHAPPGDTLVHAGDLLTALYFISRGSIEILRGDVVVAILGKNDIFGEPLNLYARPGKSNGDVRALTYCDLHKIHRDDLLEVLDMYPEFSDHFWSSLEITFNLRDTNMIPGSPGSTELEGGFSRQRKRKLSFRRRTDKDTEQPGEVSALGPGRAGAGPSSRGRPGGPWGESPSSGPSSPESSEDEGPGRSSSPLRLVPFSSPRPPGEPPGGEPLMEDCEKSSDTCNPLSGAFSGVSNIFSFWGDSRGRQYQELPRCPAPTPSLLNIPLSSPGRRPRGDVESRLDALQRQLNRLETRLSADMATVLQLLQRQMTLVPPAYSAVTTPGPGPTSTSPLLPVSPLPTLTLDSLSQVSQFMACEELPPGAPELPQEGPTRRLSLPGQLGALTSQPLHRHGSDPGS

Row | SMILES | IC50 (Hsp90) [nM] | Hsp90 binding affinity (in words, referring to Table 12) (Hsp90 (SKBr3 lysate)) | IC50 (hERG) [nM]
1 | C#Cc1cc2c(cc1Sc1nc3c(N)ncnc3n1CCCNS(C)(=O)=O)CCC2 [Compound 3A-43, N-{3-[6-Amino-8-(6-ethynyl-indan-5-ylsulfanyl)-purin-9-yl]-propyl}-methanesulfonamide] | 37.4 | high level of binding affinity | –
2 | CC(C)CS(=O)(=O)NCCCn1c(Sc2cc3c(cc2I)OCO3)nc2c(N)ncnc21 [Compound 1A-27, 2-Methyl-propane-1-sulfonic acid {3-[6-amino-8-(6-iodo-benzo[1,3]dioxol-5-ylsulfanyl)-purin-9-yl]-propyl}-amide] | 64 | – | –
3 | CC(C)(C)S(=O)(=O)NCCn1c(Sc2cc3c(cc2I)CCC3)nc2c(N)ncnc21 [Compound 3A-11, 2-Methyl-propane-2-sulfonic acid {2-[6-amino-8-(6-iodo-indan-5-ylsulfanyl)-purin-9-yl]-ethyl}-amide] | 68 | high level of binding affinity | –
4 | CC(C)(C)[S+]([O-])NCCn1c(Sc2cc3c(cc2I)CCC3)nc2c(N)ncnc21 (stereo not shown) [Compound 3A-12, 2-Methyl-propane-2-sulfinic acid {2-[6-amino-8-(6-iodo-indan-5-ylsulfanyl)-purin-9-yl]-ethyl}-amide] | – | high level of binding affinity | –
5 | NC(=O)CCCCCn1c(Sc2cc3c(cc2I)OCO3)nc2c(N)ncnc21 [Compound 1A-50, 6-(6-amino-8-((6-iodobenzo[d][1,3]dioxol-5-yl)thio)-9H-purin-9-yl)hexanamide] | 76.5 | – | –
6 | CC(C)(C)NS(=O)(=O)CCn1c(Sc2cc3c(cc2I)OCO3)nc2c(N)ncnc21 [Compound 1A-5, 2-[6-Amino-8-(6-iodo-benzo[1,3]dioxol-5-ylsulfanyl)-purin-9-yl]-ethanesulfonic acid tert-butylamide] | 78 | high level of binding affinity | –
7 | CC(C)(C)S(=O)(=O)NCCn1c(Sc2cc3c(cc2I)OCO3)nc2c(N)ncnc21 [Compound 1A-11, 2-Methyl-propane-2-sulfonic acid {2-[6-amino-8-(6-iodo-benzo[1,3]dioxol-5-ylsulfanyl)-purin-9-yl]-ethyl}-amide] | 71.5 | high level of binding affinity | –
8 | CC(C)C(=O)NCCCn1c(Sc2cc3c(cc2I)OCO3)nc2c(N)ncnc21 [Compound 1A-44, N-(3-(6-Amino-8-((6-iodobenzo[d][1,3]dioxol-5-yl)thio)-9H-purin-9-yl)propyl)isobutyramide] | 68 | – | –
9 | CC(C)(C)NS(=O)(=O)CCCn1c(Sc2cc3c(cc2I)OCO3)nc2c(N)ncnc21 [Compound 1A-19, 3-[6-Amino-8-(6-iodo-benzo[1,3]dioxol-5-ylsulfanyl)-purin-9-yl]-propane-1-sulfonic acid tert-butylamide] | 44 | high level of binding affinity | –
10 | CC(C)NCCCn1c(Sc2cc3c(cc2I)OCO3)nc2c(N)ncnc21 [PU-H71, reference compound] | – | – | 1000
11 | CC(C)(C)S(=O)(=O)NCCn1c(Sc2cc3c(cc2I)CCO3)nc2c(N)ncnc21 [Compound 2A-11, 2-Methyl-propane-2-sulfonic acid {2-[6-amino-8-(5-iodo-2,3-dihydro-benzofuran-6-ylsulfanyl)-purin-9-yl]-ethyl}-amide] | 51 | high level of binding affinity | –
12 | CC(C)(C)[S+]([O-])NCCn1c(Sc2cc3c(cc2I)CCO3)nc2c(N)ncnc21 (stereo not shown) [Compound 2A-12, 2-Methyl-propane-2-sulfinic acid {2-[6-amino-8-(5-iodo-2,3-dihydro-benzofuran-6-ylsulfanyl)-purin-9-yl]-ethyl}-amide] | 68 | high level of binding affinity | –
13 | CC(C)(C)[S+]([O-])NCCn1c(Cc2cc3c(cc2I)OCO3)nc2c(N)nc(F)nc21 (stereo not shown) [Compound 4A-12, N-(2-(6-amino-2-fluoro-8-((6-iodobenzo[d][1,3]dioxol-5-yl)methyl)-9H-purin-9-yl)ethyl)-2-methylpropane-2-sulfinamide] | 29.6 | – | –

The next lines start with results.

Row | IC50 (Hsp90) [nM] | SMILES | Hsp90 binding affinity (in words, referring to Table 12) (Hsp90 (SKBr3 lysate)) | IC50 (hERG) [nM]
14 | 11.5 | CS(=O)(=O)NCCCn1c(Sc2cc3c(cc2I)OCO3)nc2c(N)ncnc21 [Compound 1A-24, N-{3-[6-Amino-8-(6-iodo-benzo[1,3]dioxol-5-ylsulfanyl)-purin-9-yl]-propyl}-methanesulfonamide] | high level of binding affinity | –
15 | 17 | CC(C)(C)[S+]([O-])NCCCn1c(Sc2cc3c(cc2I)CCO3)nc2c(N)ncnc21 (stereo not shown) [Compound 2A-26, 2-Methyl-propane-2-sulfinic acid {3-[6-amino-8-(5-iodo-2,3-dihydro-benzofuran-6-ylsulfanyl)-purin-9-yl]-propyl}-amide] | high level of binding affinity | –
16 | 28.3 | COc1ccc(I)c(Sc2nc3c(N)ncnc3n2CCCNC(=O)C(C)(C)C)c1 [Compound 1A-49, N-(3-(6-amino-8-((2-iodo-5-methoxyphenyl)thio)-9H-purin-9-yl)propyl)pivalamide] | – | –
17 | 20.1 | CC(C)(C)[S+]([O-])NCCCn1c(Sc2cc3c(cc2I)CCC3)nc2c(N)ncnc21 (stereo not shown) [Compound 3A-26, 2-Methyl-propane-2-sulfinic acid {3-[6-amino-8-(6-iodo-indan-5-ylsulfanyl)-purin-9-yl]-propyl}-amide] | high level of binding affinity | –
18 | 24 | CC(C)(C)S(=O)(=O)NCCCn1c(Sc2cc3c(cc2I)OCO3)nc2c(N)ncnc21 [Compound 1A-25, 2-Methyl-propane-2-sulfonic acid {3-[6-amino-8-(6-iodo-benzo[1,3]dioxol-5-ylsulfanyl)-purin-9-yl]-propyl}-amide] | – | –
19 | 22 | CN(C)c1cc2c(cc1Sc1nc3c(N)ncnc3n1CCCNS(=O)(=O)C1CC1)OCO2 [Compound 1G-28, N-(3-(6-amino-8-((6-(dimethylamino)benzo[d] [1,3]dioxol-5-yl)thio)-9H-purin-9-yl)propyl)cyclopropane-sulfonamide] | high level of binding affinity | –
20 | 11.8 | Nc1ncnc2c1nc(Sc1cc3c(cc1I)CCO3)n2CCCNC(=O)C1CC1 [Compound 2A-45, Cyclopropanecarboxylic acid {3-[6-amino-8-(5-iodo-2,3-dihydro-benzufuran-6-ylsulfanyl)-purin-9-yl]-propyl}-amide] | high level of binding affinity | –
21 | 19.7 | Nc1ncnc2c1nc(Sc1cc3c(cc1I)OCO3)n2CCCNS(=O)(=O)C1CC1 [Compound 1A-28, Cyclopropanesulfonic acid {3-[6-amino-8-(6-iodo-benzo[1,3]dioxol-5-ylsulfanyl)-purin-9-yl]-propyl}-amide] | – | –
22 | 8.1 | CS(=O)(=O)NCCCn1c(Sc2cc3c(cc2I)CCC3)nc2c(N)ncnc21 [Compound 3A-24, N-{3-[6-Amino-8-(6-iodo-indan-5-ylsulfanyl)-purin-9-yl]-propyl}-methanesulfonamide] | high level of binding affinity | –
23 | 16.5 | CC(=O)OC(C)(C)C(=O)NCCCn1c(Sc2cc3c(cc2I)OCO3)nc2c(N)ncnc21 [Compound 1A-47, 1-((3-(6-Amino-8-((6-iodobenzo[d][1,3]dioxol-5-yl)thio)-9H-purin-9-yl)propyl)amino)-2-methyl-1-oxopropan-2-yl acetate] | – | –
24 | 3.5 | CS(=O)(=O)NCCn1c(Sc2cc3c(cc2I)CCC3)nc2c(N)ncnc21 [Compound 3A-10, N-{2-[6-Amino-8-(6-iodo-indan-5-ylsulfanyl)-purin-9-yl]-ethyl}-methanesulfonamide] | high level of binding affinity | –
25 | 6.3 | CS(=O)(=O)NCCn1c(Sc2cc3c(cc2I)OCO3)nc2c(N)ncnc21 [Compound 1A-10, N-{2-[6-Amino-8-(6-iodo-benzo[1,3]dioxol-5-ylsulfanyl)-purin-9-yl]-ethyl}-methanesulfonamide] | high level of binding affinity | –

— patent US9926321B2, “Hsp90 inhibitors” (Sloan-Kettering Institute for Cancer Research, priority 2011, dated 2018)
